Laboratory results: PMC10669052, “Exploring Differences in Pharmacometrics of Rabeprazole between Genders via Population Pharmacokinetic–Pharmacodynamic Modeling” (Biomedicines, 2023)
Values after ≈ are worked out from the molar mass of the structure shown. Where two headings read alike, the source gives them in different places.

Columns and labels:
[1] = clinical; settings: for AUC / AUC(0-inf) / AUCextrap / Cmax / MRT / Tmax / Vd/F / half-life: human, in vivo, po
Method: Analysis of biochemical parameters was performed on all subjects participating in the clinical trial and the methods are presented in Supplementary Information S1. Information relating to the selection and progress of clinical trial participants is presented in Supplementary Information S2, and information on the clinical trial design and sampling is presented in Supplementary Information S3. The clinical trial protocol was thoroughly reviewed and officially approved (approval number: MB22-002; approved on 15 February 2022) by the Ministry of Food and Drug Safety (Cheongju-si, Republic of Korea). NCA was used to calculate the rabeprazole pharmacokinetic parameters for males and females before a comparison of rabeprazole pharmacokinetics was performed between genders to determine any significant rabeprazole pharmacokinetic parameters in males and females. Pharmacokinetic parameters calculated by NCA were estimated based on plasma concentration values over time after orally administering a 10 mg rabeprazole enteric-coated tablet. Information on the analytical method applied to quantify rabeprazole among plasma samples is briefly presented in Supplementary Information S4, whereas the methods for calculating pharmacokinetic parameters using NCA are presented in Supplementary Information S5. An additional NCA analysis was performed based on the normalized rabeprazole plasma concentration values for body weight, which is one of the major physiological differences between genders that has been frequently applied in past pharmacokinetic comparative studies between genders, and the results were categorized and compared by gender. The significant differences between genders were compared using a two-tailed t test, with significance determined at a p value of 0.05.
43 Supplementary Information 3
45 Clinical trial design and sampling
46 This bioequivalence investigation was performed as randomized, single-dose, open-label,
47 crossover, and two-way studies (with a washout period of 7 days). Prior to the clinical trial,
49 Minneapolis, MN, USA) installed into a vein on the arm or back of the hand, and 6 mL of blank
50 blood was collected. Then, all subjects were orally administered a single 10 mg rabeprazole
51 enteric-coated tablet along with 150 mL of water. Subjects had fasted for more than 10 h before
52 administration. Blood sampling from subjects was performed at a total of 13 specific time
53 points post-dose: Before administration (0 h) and at 1, 2, 2.5, 3, 3.5, 4, 4.5, 5, 5.5, 6, 7, 8, and
54 10 h after oral administration. The sampling method was as follows: To completely remove the
55 heparinized saline solution remaining in the venous catheter during blood collection,
56 approximately 1 mL of blood was collected and discarded each time, and approximately 6 mL
57 of blood was collected and placed in sodium heparinized vacutainer tubes (BD, Franklin Lakes,
58 NJ, USA) with the subject management number and blood collection time written on them.
59 After each blood draw, a saline solution for injection (containing heparin for injection) was
60 administered to prevent the blood remaining in the intravenous catheter from clotting. The
61 collected blood was centrifuged at 3,000 ×g for 10 min in a centrifuge set at 4 °C, and then
62 approximately 1 mL of plasma was taken, transferred to an Eppendorf tube (Eppendorf, […]

[2] = Population pharmacokinetic model (three sequential absorption with Tlag, two-compartment; Phoenix NLME); type: in vivo, human; settings: for CL/F: both sexes, human, plasma, oral, 10 mg, read-out: tvCLc/F (typical value, central compartment clearance) (converted)
Method: Construction and analysis of the population pharmacokinetic model for rabeprazole were performed using a non-linear mixed effects model approach using Phoenix NLME (version 8.4, Pharsight, Certara Inc., Princeton, NJ, USA) software. An estimation of population pharmacokinetic parameters for rabeprazole was performed using the first-order conditional estimates method with extended least squares estimation (with ŋ–ε interaction). The development of the rabeprazole population pharmacokinetic model was largely performed in two steps. First, a basic structural model was established that could explain the plasma concentration of rabeprazole following its oral administration. This included a number of basic compartments, whether to reflect the lag time (Tlag) associated with rabeprazole oral absorption, the mechanistic structuring involved in the absorption process (including multiple absorption), or the selection of relevant error models to account for residual and IIV. Thus, in establishing the model, the values obtained using the NCA calculations were reflected as the initial parameter values, which accelerated the convergence of the final parameters and enabled its effective modeling. Second, a search was performed for model-applicable effective covariates relevant to the inter-individual rabeprazole pharmacokinetic variation modeling. This was achieved by applying stepwise candidate covariates to the IIVs of the pharmacokinetic parameters reflected in the model. Gender and individual physiological and biochemical factors were considered potential effective covariates and treated as categorical and continuous data, respectively, before application priorities were determined based on the results of the previous correlation screening. Appropriate models for each step were selected and performed using various statistical significance tools derived from Phoenix NLME, including Akaike’s information criterion (AIC), twice the negative log-likelihood (−2LL), and goodness-of-fit (GOF) plots, whereas the significance of the total number of parameters applied to the model (increased or decreased degrees of freedom) was also considered. Significance was determined using a Chi-square distribution p value of 0.05 (for forward selection) and 0.01 (for backward elimination) at −2LL and objective function value (OFV). The adequacy of the rabeprazole population pharmacokinetic model was verified using GOF (including distribution of residuals), visual predictive check (VPC), and bootstrapping processes. Approaches to each tool for model verification are presented in Supplementary Information S6.
The structure of the rabeprazole population pharmacokinetic model can be explained as two compartments, each with three sequential first-order absorption and Tlag values. As for the basic compartments, significant model improvements (−2LL reduction of p < 0.05 and/or 0.01) were confirmed in two-compartment structures rather than in one, whereas the −2LL increased in three- or more compartment structures alongside the total number of parameters. As a result, the plasma rabeprazole concentration profiles could be explained by its distribution in the central and peripheral compartments with two kinetics in the body. Regarding the delayed absorption pattern of rabeprazole during the absorption phase, several structural absorption compartment models have been attempted, such as the Tlag reflection model, the non-sequential two absorption model (having two or more absorption points with consideration of bioavailability), and the sequential absorption model (via the application of two or more absorption rate constant parameters between successive absorption compartments). In addition, mathematical transformation models, such as Weibull absorption, saturation, zero-order, and mean transit time (MTT) have also been attempted. […]

[3] = system: gastric pH; assay: Pharmacodynamic model (sigmoid Emax with baseline) of gastric pH versus rabeprazole plasma concentration; type: in vivo, human; settings: sigmoid Emax model with baseline fitted to digitized gastric pH vs plasma concentration data
Excerpt: The pharmacodynamic model was established based on rabeprazole plasma concentration-measured drug efficacy information (quantified using Web-plot-digitizer (version 4.6)), according to the rabeprazole exposure. The efficacy of rabeprazole was indicated by changes in gastric pH, which was related to plasma rabeprazole selectively inhibiting H^+/K^+-ATPase in gastric parietal cells, thereby increasing intragastric pH. Pharmacodynamic predictions for rabeprazole were achieved by structuring the effect compartment related to the rabeprazole pharmacokinetic profile in the central compartment. Simply, the change in the plasma pharmacokinetic profile over time after administering rabeprazole is directly related to the change in drug efficacy. Therefore, it could be expanded and implemented as a pharmacodynamic model, whereby the time–drug effect after exposure to rabeprazole can be quantified. The established and validated population pharmacokinetic model structure and parameter values associated with rabeprazole were fixed as representative values of the population before being expanded into a model to predict the pharmacodynamics of rabeprazole. This was conducted to explore the effect of any differences in the absorption rate of rabeprazole between genders.

[4] = final population PK model, Estimate
[5] = population PK model estimate as quoted in text

Compound: COCCCOc1ccnc(C[S+]([O-])c2nc3ccccc3[nH]2)c1C (centres unmarked) [rabeprazole, Rabeprazole]
- AUC ([1]; both, 10 mg): 432 ± 166 ng·h/mL
- AUC(0-inf) ([1]; both, 10 mg): 456 ± 174 ng·h/mL
- AUCextrap ([1]; both, 10 mg): 5.07 ± 9.42%
- Cmax ([1]; both, 10 mg): 236.57 ± 97.86 ng/mL
- MRT ([1]; both, 10 mg): 4.79 ± 1.7 h
- Tmax ([1]; both, 10 mg): 3.71 ± 1.22 h
- Vd/F ([1]; both, 10 mg): 53.9 ± 27.3 L
- half-life ([1]; both, 10 mg): 1.55 ± 0.54 h
- Tmax ([1]; female): 4.1 ± 1.15 h
- AUC ([1]; female, 10 mg): 424 ± 176 ng·h/mL
- AUC(0-inf) ([1]; female, 10 mg): 453 ± 181 ng·h/mL
- AUCextrap ([1]; female, 10 mg): 4.38 ± 7.82%
- Cmax ([1]; female, 10 mg): 260 ± 113 ng/mL
- MRT ([1]; female, 10 mg): 5.25 ± 1.97 h
- Vd/F ([1]; female, 10 mg): 54.3 ± 38.1 L
- half-life ([1]; female, 10 mg): 1.48 ± 0.64 h
- AUC ([1]; male, 10 mg): 439 ± 161 ng·h/mL
- AUC(0-inf) ([1]; male, 10 mg): 459 ± 172 ng·h/mL
- AUCextrap ([1]; male, 10 mg): 3.84 ± 4.01%
- Cmax ([1]; male, 10 mg): 216 ± 79.6 ng/mL
- MRT ([1]; male, 10 mg): 4.4 ± 1.36 h
- Tmax ([1]; male, 10 mg): 3.38 ± 1.21 h
- Vd/F ([1]; male, 10 mg): 53.5 ± 12.8 L
- half-life ([1]; male, 10 mg): 1.6 ± 0.44 h
- AUCinf (plasma concentrations normalized by body weight) ([1]; single oral 10 mg enteric-coated tablet, NCA, body weight normalized, Total (n = 45), mean ± SD): 7.17 ± 3.34 ng·h/mL/kg
- dKa3dBSA (quantitative correlation value between Ka3 and body surface area) ([2]; Bootstrap (n = 1000) Median): −0.95
- dTlagdGender (quantitative correlation value between Tlag and gender) ([2]; Bootstrap (n = 1000) Median): 0.67
- tvCLp/F (typical value, peripheral compartment clearance) ([2]; Bootstrap (n = 1000) Median): 5.38 L/h
- tvKa1 (first sequential absorption rate constant) ([2]; Bootstrap (n = 1000) Median): 1.89 h⁻¹
- tvKa2 (second sequential absorption rate constant) ([2]; Bootstrap (n = 1000) Median): 2.03 h⁻¹
- tvKa3 (third sequential absorption rate constant) ([2]; Bootstrap (n = 1000) Median): 3.26 h⁻¹
- tvTlag (typical value, lag time) ([2]; Bootstrap (n = 1000) Median): 1.55 h
- tvVc/F (typical value, central compartment distribution volume) ([2]; Bootstrap (n = 1000) Median): 10.06 L
- tvVp/F (typical value, peripheral compartment distribution volume) ([2]; Bootstrap (n = 1000) Median): 11.30 L
- ε (residual error) ([2]; Bootstrap (n = 1000) Median): 0.35
- ω^2CLc/F (inter-individual variability) ([2]; Bootstrap (n = 1000) Median): 0.14
- ω^2Ka1 (inter-individual variability) ([2]; Bootstrap (n = 1000) Median): 0.00
- ω^2Ka2 (inter-individual variability) ([2]; Bootstrap (n = 1000) Median): 0.00
- ω^2Ka3 (inter-individual variability) ([2]; Bootstrap (n = 1000) Median): 1.82
- ω^2Tlag (inter-individual variability) ([2]; Bootstrap (n = 1000) Median): 0.23
- ω^2Vc/F (inter-individual variability) ([2]; Bootstrap (n = 1000) Median): 1.55
- CL/F ([2]; Bootstrap (n = 1000) Median): 424 mL/min
- CL/F [2, 4]: 428 mL/min
- dKa3dBSA (quantitative correlation value between Ka3 and body surface area) [2, 4]: −1.11
- tvCLp/F (typical value, peripheral compartment clearance) [2, 4]: 5.45 L/h
- tvKa1 (first sequential absorption rate constant, dosing depot–depot 1) [2, 4]: 1.91 h⁻¹
- tvKa2 (second sequential absorption rate constant, depot 1–depot 2) [2, 4]: 2.43 h⁻¹
- tvKa3 (third sequential absorption rate constant, depot 2–central compartment) [2, 4]: 3.34 h⁻¹
- tvTlag (typical value, lag time) [2, 4]: 1.56 h
- tvVc/F (typical value, central compartment distribution volume) [2, 4]: 10.31 L
- tvVp/F (typical value, peripheral compartment distribution volume) [2, 4]: 11.46 L
- ω^2CLc/F (inter-individual variability) [2, 4]: 0.14
- ω^2Ka1 (inter-individual variability) [2, 4]: 0.00
- ω^2Ka2 (inter-individual variability) [2, 4]: 0.00
- ω^2Ka3 (inter-individual variability) [2, 4]: 1.74
- ω^2Tlag (inter-individual variability) [2, 4]: 0.23
- ω^2Vc/F (inter-individual variability) [2, 4]: 2.04
- dTlagdGender (quantitative correlation value between Tlag and gender) ([2]; final population PK model, Estimate, female = 1, male = 0): 0.73
- ε (residual error) ([2]; final population PK model, Estimate, log-additive error model): 0.37
- Vc/F estimate [2, 5]: 10.3 L
- Vp/F estimate [2, 5]: 11.5 L
- EC50 ([3]; Homo sapiens, read-out: EC50 (plasma rabeprazole concentration required to achieve 50% of the Emax)): 0.0516 µg/mL (≈ 0.143 µM)
- E0 (basal pH effect in the stomach that occurs without rabeprazole) [3]: 2.50
- Emax (maximal effect of increasing gastric pH by plasma rabeprazole level) [3]: 4.72
- γ (sigmoidicity factor) [3]: 5.04
